Results taken from paper PMC9307983 (Acta Naturae, 2022).

Assays:
MGL, Ser339Ala = MGL, Ser339Ala (Citrobacter freundii, UniProt Q84AR1, S339A); experiment: biochemical; format: biochemical
Method: The kinetic parameters of the γ- and β-elimination reactions were determined at 30°C in the conjugate reaction with HOHxoDH or LDH based on a decrease in NADH absorbance at 340 nm (Δε = 6,220 M^–1cm^–1). The reaction mixtures contained a 100-mM potassium phosphate buffer, pH 8.0, 0.1 mM PLP, 1 mM DTT, 0.2 mM NADH, 70 μg HOHxoDH or 10 U LDH, and variable amounts of the substrate in a total volume of 1 mL. The reaction was initiated by the addition of 10 μg of the enzyme.
The kinetic parameters were calculated according to the Michaelis–Menten equation using the EnzFitter software. In the calculations, an enzyme subunit molecular weight of 43 kDa was used. The inhibition constants were also determined using the EnzFitter software.

Ser339Ala MGL = Ser339Ala MGL (Citrobacter freundii, UniProt Q84AR1, S339A); experiment: coenzyme (PLP) dissociation constant by ultrafiltration, Ser339Ala MGL apoenzyme; format: binding; details: mutant enzyme, pH 8.0, 30°C, Scatchard coordinates
Method: The apoenzyme and holoenzyme were prepared in a 50-mM potassium phosphate buffer, pH 8.0, containing 1 mM DTT and 1 mM EDTA. The holoenzyme was prepared by adding a 50-fold molar excess of PLP. The mixture was incubated at 25°C for 1 h. The excess PLP was removed by dialysis. The apoenzyme was prepared by adding a 100-fold molar excess of DL-penicillamine to the sample [42]. The mixture was incubated at 25°C for 1 h. DL-Penicillamine was removed by dialysis. The procedure was repeated until the enzyme activity decreased to 1% of the initial activity. The PLP content in the sample was determined in 100 mM NaOH using the molar extinction coefficient of PLP at 390 nm (ε = 6,600 M^–1cm^–1 [43]).
The PLP dissociation constant was determined by ultrafiltration. Varying amounts of PLP (in a range of 5 × 10^–3 to 1.2 × 10^–1 mM) were added to the 8 × 10^–3 mM apoenzyme in a 50-mM potassium phosphate buffer, pH 8.0, containing 1 mM DTT and 1 mM EDTA. After incubation at 30°C for 30 min, free PLP was separated by centrifugation in a Centricon-30 microconcentrator (Amicon, United States) at 5,000 rpm and 4°C for 5 min. The PLP content in each sample was determined in 100 mM NaOH. The data were processed in Scatchard coordinates.

CSCC[C@H](N)C(=O)O = experiment: purified protein, by the assay type; details: other: Ser339Ala MGL, 30°C, pH 8.0, coupled with HOHxoDH or LDH

C[C@H](N)C(=O)O [L-Ala, L-alanine]
Ki (MGL, Ser339Ala): 1250 ± 320 µM

Cc1ncc(COP(=O)(O)O)c(C=O)c1O [PLP, pyridoxal 5’-phosphate]
Kd (Ser339Ala MGL): 1.01 µM

MGL, Ser339Ala (Citrobacter freundii; S339A)
Km (CSCC[C@H](N)C(=O)O): 1840 ± 150 µM
kcat (CSCC[C@H](N)C(=O)O): 0.21 s⁻¹
